Legend:
hepatitis B virus (HBV) [1] = experiment: AAV-HBV mouse model of chronic HBV infection, first study; format: in vivo; settings: for HBV replication (measured in blood): 5 weeks of dosing
Experimental: (§1) The anti-hepatitis B virus (HBV) efficacy of Decoy was evaluated in two studies. A standard pre-clinical model was used in which the human HBV genome is inserted in an adeno-associated virus (AAV). This hybrid construct is able to infect mouse hepatocytes, producing a chronic HBV-like infection with many of the hallmarks of human HBV infection, including high levels of HBV replication in liver and blood and production of HBe and HBs antigen (HBeAg and HBsAg). AAV-HBV virus is administered to mice and then blood titers of HBV DNA are monitored. Significant and relatively stable blood levels of HBV appear within 28-31 days, at which point treatment is initiated. Indomethacin was administered with Decoy in many groups in the first study, but not in the second study.
In the first study, Decoy (two different doses) was tested in combination with indomethacin and also in combination with the clinical standard of care, Entecavir (ETV). ETV and indomethacin were also tested as single agents (first study). […] In addition, ETV and mIFN-alpha were tested as single agents and in combination with Decoy (one dose).
Decoy-induced body weight loss was mild, transient (6% for […] in first week of treatment) and tapered off after the first week of treatment (tolerance phenomenon) (FIG. 28).

hepatitis B virus (HBV) [2] = experiment: AAV-HBV mouse model of chronic HBV infection, second study; format: in vivo
Experimental: as §1
A group of untreated animals was included in the study. All treatment was well tolerated in AAV-HB V-infected mice.
No inhibition of other infection hallmarks was observed by mIFN-alpha.

CT26 tumors = experiment: s.c. established CT26 tumors, Decoy with LDC; format: in vivo, mouse; settings: Decoy alone 6.0×10^8; LDC 20 mg/kg i.p.; combination 3×10^8 Decoy + LDC
Source text: LDC alone produced a 57% ILS, which was statistically significant.

[3] = test system: CT26.WT colorectal carcinoma; experiment: s.c. CT26.WT, Decoy (DB104) with cyclophosphamide (CTX); format: in vivo, mouse; settings: vs untreated mice; Decoy single agent all doses (p<0.05); CTX both schedules
Experimental: Mouse CT26.WT colorectal carcinoma cells were implanted (injected) into the right flank of BALB/c mice. Animals were randomized and treatments were initiated (Starting Day=SD) with a mean group tumor weight of 75 to 79 mg. […] A group of animals that received no treatment was used as the control.

[4] = test system: H22 hepatocellular carcinoma; settings: mouse, in vivo
Experimental: Indomethacin was tested at 10 μg/mL in drinking water, p.o. ad libitum daily for either 4 or 7 weeks. […] Treatment was started when the average tumor size was 123 mm^3.

[5] = test system: A20 non-Hodgkin's lymphoma; experiment: s.c. A20 lymphoma, Decoy dose and regimen with LDC; format: in vivo, mouse; settings: LDC alone
Experimental: A group of untreated animals was used as the control. LDC alone was also tested. Treatment was initiated on Day 13 when the average tumor size was 158 mm^3.

[6] = test system: A20 non-Hodgkin's lymphoma; experiment: s.c. A20 lymphoma, repeat and immune cell depletion; format: in vivo, mouse; settings: 212 mm^3 tumors; two weeks of treatment
Experimental: A group of untreated animals was used as the control. Treatment was started when the average tumor size was 212 mm^3. […] Combination with LDC produced 12% transient weight loss in the first week and 13.6% transient weight loss in the second week.
Tumor implantation was carried out during the depletion regimen. […] Extra mice in each group were sacrificed at the time of initiation of treatment in order to verify immune cell depletion. […] The positive control included 2 groups of 6 mice each (one group received indomethacin), with 10/12 CRs/regressions (6/6 regressions without indomethacin and 4/6 regressions with added indomethacin). […] Thus, in addition to immune activation associated with innate and adaptive immune cells, LPS provides a key bridging activity between the innate and adaptive immune systems.

[7] = test system: Pan02 pancreatic carcinoma; experiment: Intrasplenic Pan02 pancreatic carcinoma, first experiment; format: in vivo; settings: Decoy 5×10^7 and 2×10^8 per mouse; gemcitabine 50 mg/kg i.p.
Source text: Pancreatic tumor cells were surgically implanted (injected) into the spleen of C57BL/6 female mice on Day 0. […] A group of untreated animals was used as the control. All untreated animals developed large tumors in the spleen, liver and pancreas, requiring termination around Day 30.

[8] = test system: Pan02 pancreatic carcinoma; experiment: Intrasplenic Pan02 pancreatic carcinoma, second experiment; format: in vivo, mouse; settings: single agents
Source text: A group of animals administered Decoy vehicle was used as the control.

[9] = test system: H22 hepatocellular carcinoma; experiment: s.c. H22 hepatocellular carcinoma, first study (194 mm^3); format: in vivo; settings: single agents; Decoy QD×2 weekly 6 weeks
Experimental: Treatment was initiated when the average tumor size was 194 mm^3. […] Indomethacin was administered at 10 μg/mL, p.o., ad libitum daily in drinking water×6 weeks (alone and in combinations) and anti-PD-1 was administered at 10 mg/kg, i.p., BIW×2 weeks (alone and in combinations). A group of animals that received no treatment was used as the control in the study.

[10] = test system: H22 hepatocellular carcinoma; experiment: s.c. H22 hepatocellular carcinoma, second study (E0776-U1802); format: in vivo
Experimental: Indomethacin was tested at 10 μg/mL in drinking water, p.o. ad libitum daily for either 2 or 6 weeks. Anti-PD-1 was tested at 10 mg/kg, i.p. 2× per week for 2 weeks. Dosing was started when the average tumor size was 184 mm^3. A group of untreated animals was used as the control.

H22 tumors = experiment: s.c. H22 HCC, plasma cytokine/chemokine induction and one-week treatment; format: in vivo, mouse
Experimental: Female BALB/c mice with ˜200 mm^3 H22 tumors were randomized on Day-0 into 8 groups, each containing 3 sub-groups. All of the possible treatment approaches or combinations, including no treatment, were carried out. Mice from each of two subgroups from each group (5 mice per sub-group) were sacrificed 6 and 24 hours after no treatment, single, 2-way, or 3-way combination treatment. In the case of 2way and 3-way combination treatment, mice were sacrificed 6 and 24 hours after the first treatment instance of the second or third component of the combination. Plasma was prepared from each mouse and 32-plex ELISA-based cytokine/chemokine analysis was carried out. A third sub-group from each group (6 mice each) was treated for one week, with tumor volumes measured at randomization, once during the week and at the end of one week of treatment. Mice were sacrificed, then tumors were harvested and RNA was isolated. The 48 RNA samples were analyzed for expression of 770 genes involved in immune response pathways, using NanoString technology.
Indomethacin induced expression of only 2/32 cytokines/chemokines, and only at 6 hours after initiation of treatment. […] There was no increase in weight loss in any of the combination groups, relative to single agent treatment. […]

Ramos NHL xenograft = experiment: s.c. human Ramos NHL xenograft in CB17/SCID mice; parameters: species or system mouse; settings: in vivo
Experimental: This was tested with the human Ramos NHL xenograft model in SCID mice, which lack B and T cells.
Maximum transient weight loss for all non-indomethacin groups was generally in the 5% to 10% range. […] However, cure of at least some percentage of the mice is possible with the 3-way combination as a repeat produced 2/4 durable regressions in mice.
The 5 tumor-regressed mice were re-challenged with fresh Ramos tumor cells (opposite flank from first challenge) on Day 74. Only 2/5 tumors grew out, compared to 5/5 with naïve mice challenged with the same fresh tumor cells (FIG. 26). […] This has been reported previously with a small number of other agents, and is considered to be very difficult to achieve. Tumor regression with immunological memory via the innate immune system alone is very rare in preclinical models, but consistent with a multiple TLR agonist mechanism.

HIV-1 = experiment: Chronic HIV humanized hu-mouse model; format: in vivo; settings: 5 weeks of treatment
human PBMCs = experiment: Cytokine secretion by human PBMCs in vitro; format: cell-based; settings: 48 hr, full titration peak/mean of triplicates; Study AB64785
Experimental: TLR ligands such as E. coli LPS, ds E. coli DNA, E. coli peptidoglycan (PGN), Flagellin, R848, Polyinosinic-polycytidylic acid (poly I:C), and CpG oligonucleotide (ODN) were also assessed in these studies. Initial experiments were carried out with incubation for 24, 48 and 72 hours, as well as with and without immune cell activation with anti-CD3. […] In addition, maximal induction of secretion of most cytokines and chemokines occurred after 48 hours. […] Essentially all cytokines and chemokines participate in activation of innate and/or adaptive (including anti-tumor and anti-viral) immune pathways, but can also induce significant toxicity if expressed in the wrong place, at the wrong time, for too long, or at an inappropriately high level.

healthy human volunteers = settings: purified LPS, over 1,000 healthy human volunteers; cited from earlier work

C=C1[C@H](CO)[C@@H](O)C[C@@H]1n1cnc2c(=O)[nH]c(N)nc21 [ETV, Entecavir]
HBV replication (measured in blood) (hepatitis B virus (HBV) [1]): significantly inhibited HBV replication
HBeAg and HBsAg in blood (hepatitis B virus (HBV) [1]; mouse, in vivo): not to reduce or inhibit production of HBeAg or HBsAg
inhibition of HBcAg in the liver (hepatitis B virus (HBV) [1]; mouse, in vivo): not
reduction of HBV in the liver (hepatitis B virus (HBV) [1]; mouse, in vivo): not
plasma HBV DNA levels (hepatitis B virus (HBV) [2]; Day 31 to Day 151, no indomethacin): reduced plasma HBV DNA levels
HBV DNA and HBeAg levels in mouse liver at termination (hepatitis B virus (HBV) [2]; mouse, in vivo): not
plasma HBsAg and HBeAg levels (hepatitis B virus (HBV) [2]; mouse, in vivo): not

O=P1(N(CCCl)CCCl)NCCCO1 (stereo not drawn) [LDC, cyclophosphamide]
increased lifespan (% ILS) (CT26 tumors): 57%
inhibition of tumor growth [3]: significant tumor growth inhibition
single agent anti-tumor activity [4]: weak, but statistically significant
tumor regression (group of 4) [5]: one
regressions [6]: without producing any regressions

Nc1ccn([C@@H]2O[C@H](CO)[C@@H](O)C2(F)F)c(=O)n1 [gemcitabine]
median survival time [7]: significant increase in median survival
survival [8]: increased survival
single agent anti-tumor activity [4]: weak, but statistically significant
weight loss [4]: 20%

COc1ccc2c(c1)c(CC(=O)O)c(C)n2C(=O)c1ccc(Cl)cc1 [indomethacin]
survival [8]: did not increase survival significantly
increase in life-span (% ILS) [9]: 30%
regressions ([10]; 6 week indomethacin treatment): did not see any regressions
regressions (6 animals per group) ([10]; indomethacin 2 weeks, indomethacin 2 weeks+anti-PD-1, Decoy QD×2 6 weeks+indomethacin 6 weeks): one
lifespan (ILS) ([10]; single agents, indomethacin 2 weeks and 6 weeks): statistically significant increase in lifespan
Transient weight loss [4]: not seen
plasma cytokines/chemokines induced (of 32) (H22 tumors; 6 or 24 hours after treatment): 2/32
Tumor growth inhibition relative to no treatment (H22 tumors; after one week of treatment): 17%
single agent anti-tumor activity (Ramos NHL xenograft): did not produce single agent activity
HBV replication (measured in blood) (hepatitis B virus (HBV) [1]): did not inhibit HBV replication
HIV viral load in plasma (HIV-1): inhibited HIV viral load

Polyinosinic-polycytidylic acid [Poly(I:C)]
GM-CSF secretion by human PBMCs (human PBMCs): 0 pg/mL
IFNγ secretion by human PBMCs (human PBMCs): 103 pg/mL
IL-1β secretion by human PBMCs (human PBMCs): 22 pg/mL
IL-6 secretion by human PBMCs (human PBMCs): 129 pg/mL
IL-8 secretion by human PBMCs (human PBMCs): 1,452 pg/mL
IL-10 secretion by human PBMCs (human PBMCs): 8 pg/mL
IL-12p70 secretion by human PBMCs (human PBMCs): 18 pg/mL
TNFα secretion by human PBMCs (human PBMCs): 208 pg/mL

lipopolysaccharide [LPS]
GM-CSF secretion by human PBMCs (human PBMCs): 175 pg/mL
IFNγ secretion by human PBMCs (human PBMCs): 29,416 pg/mL
IL-1β secretion by human PBMCs (human PBMCs): 4,631 pg/mL
IL-6 secretion by human PBMCs (human PBMCs): 54,174 pg/mL
IL-8 secretion by human PBMCs (human PBMCs): 143,459 pg/mL
IL-10 secretion by human PBMCs (human PBMCs): 3,542 pg/mL
IL-12p70 secretion by human PBMCs (human PBMCs): 109 pg/mL
TNFα secretion by human PBMCs (human PBMCs): 24,944 pg/mL
highest dose determined to be well-tolerated after IV administration (healthy human volunteers): 0.004 µg/kg

rituximab
single agent anti-tumor activity (Ramos NHL xenograft): inhibited or delayed

Source: patent US20240075123A1, “TREATMENT OF CANCERS AND INFECTIOUS DISEASES WITH KILLED INTACT BACTERIA” (priority 2022, published 2024)
